The conditions of series [1]: cited from earlier work.
Series [2] can be described thus: NA (ETV, TFV) plasma PK (NCA) with coadministered bepirovirsen in the Phase 2b B-Clear study. Format: in vivo. To be noted: human, oral; for concentration at 24 h: B-Clear, mean ± SD, read-out: Ctau; for AUC(0-t): read-out: AUC0-24. Here is the method:
NA plasma PK parameters were calculated using NCA methods with Phoenix WinNonlin Version 8.1.0.3530. PK parameters included Cmax, AUC from time zero to 24 hours after dosing, and plasma concentration at the end of the dosing interval. Calculations were based on the actual sampling times. PK samples in the B‐Clear study were assayed for bepirovirsen, ETV, and TFV in plasma at the bioanalytical facility Labcorp Drug Development, Shanghai, China, using validated liquid–liquid extraction for bepirovirsen, solid‐phase extraction for ETV, and protein precipitation for TFV assays followed by high‐performance liquid chromatography with mass spectrometric detection. All plasma samples were assayed within the established long‐term frozen, freeze/thaw, and processed extract stability.

Read-outs that look alike come from different tables or passages of the source.

With `C=C1[C@H](CO)[C@@H](O)C[C@@H]1n1cnc2c(=O)[nH]c(N)nc21` [ETV, entecavir], in series [1] (in vivo, 0.5 mg), the Cmax is recorded as 4.2 ng/mL. In addition, the tmax result in series [1] (in vivo) is listed as “approximately 1 hour”. Further, in series [2] (0.5 mg), the Cmax amounted to 6.5 ± 2.3 ng/mL and the AUC(0-t) came to 24.4 ± 6.8 ng·h/mL. Also, the concentration at 24 h in series [2] (0.5 mg, ETV 0.5 mg once daily with bepirovirsen) was 0.5 ± 0.1 ng/mL.

In the case of `C[C@H](Cn1cnc2c(N)ncnc21)OCP(=O)(O)O` [TFV, tenofovir], the tmax result in series [1] (after dosing) is listed as “approximately 1 hour”. The AUC0-24 in series [1] (in vivo, 25 mg) is 400 (35.2) ng•h/mL; in series [1] (in vivo, 300 mg), 2290 ± 690 ng·h/mL. The Cmax is 30.0 (24.6) ng/mL in series [1] (in vivo, 25 mg); 19.4 ± 5.9 ng/mL in series [2] (25 mg); 319 ± 95.9 ng/mL in series [2] (300 mg). Further, the values for the AUC(0-t) in series [2] (25 mg) and in series [2] (300 mg) were 308 ± 105 ng·h/mL and 2750 ± 661 ng·h/mL, respectively. For the same molecule, the figures for the concentration at 24 h in series [2] (TFV administered as TAF 25 mg once daily with bepirovirsen) and in series [2] (TFV administered as TDF 245 or 300 mg once daily with bepirovirsen) were 10.3 ± 3.5 ng/mL and 57 ± 17.1 ng/mL, respectively.

The values are drawn from PMC11975176 (Clinical Pharmacology in Drug Development, 2025).
